Assay results taken from ChEMBL document CHEMBL1142370, “Synthesis and SAR of pyridazinone-substituted phenylalanine amide alpha4 integrin antagonists” (Bioorg Med Chem Lett, 2008).

Key:
[1] = in vivo; conditions: rat, po, 30 mg/kg
[2] = in vivo; conditions: rat, po, 30 mg/kg; remark: listed apart in the source
[3] = in vitro; conditions: human, Caco-2

Row | Cmax [2] [µM] | Papp A→B [3] [×10⁻⁶ cm/s] | SMILES | bioavailability [1] [%]
1 | – | – | COc1cnn(C)c(=O)c1-c1ccc(C[C@H](NC(=O)c2cc(F)ccc2Cl)C(=O)O)cc1 | 0
2 | 19 | – | COc1cnn(C)c(=O)c1-c1ccc(C[C@H](NC(=O)c2cc(F)ccc2Cl)C(=O)OCCO)cc1 | 5
3 | 0.1 | 0.13 | COc1cnn(C)c(=O)c1-c1ccc(C[C@H](NC(=O)c2c(Cl)cccc2Cl)C(=O)O)cc1 | –
